Assay results: BigSolDB 2.1

C[C@@H]1O[C@@H](OC[C@H]2O[C@@H](Oc3c(-c4ccc(O)c(O)c4)oc4cc(O)cc(O)c4c3=O)[C@H](O)[C@@H](O)[C@@H]2O)[C@H](O)[C@H](O)[C@H]1O
solubility (mole fraction)
Details	273.2 K	283.2 K	293.2 K	303.2 K	313.2 K	323.2 K
in ethanol	0.00348	0.00372	0.00427	0.00515	0.00592	0.00653
in water	2.97e-06	5.29e-06	5.87e-06	8.22e-06	1.02e-05	1.42e-05
